From US20250304644A1, “PEPTIDES TRIPLE AGONISTS OF GIP, GLP-1 AND GLP-2” (BAINAN BIOTECH APS, priority 2021, published 2025)
“And” between values parts separate entries of the source, which are not always exact repeats. Equal values may be shown once.

Columns and labels:
Assay type in all cases: cell-based
[1] = target: T1, human GLP-2R (Homo sapiens, UniProt O95838); experiment: cAMP assay (HitHunter) in transiently transfected COS-7 cells expressing human GLP-2R; details: COS-7, read-out: Efficacy GLP-2R (Emax)
T1 construct: host or cells: COS-7
T1 sequence (O95838 1-553): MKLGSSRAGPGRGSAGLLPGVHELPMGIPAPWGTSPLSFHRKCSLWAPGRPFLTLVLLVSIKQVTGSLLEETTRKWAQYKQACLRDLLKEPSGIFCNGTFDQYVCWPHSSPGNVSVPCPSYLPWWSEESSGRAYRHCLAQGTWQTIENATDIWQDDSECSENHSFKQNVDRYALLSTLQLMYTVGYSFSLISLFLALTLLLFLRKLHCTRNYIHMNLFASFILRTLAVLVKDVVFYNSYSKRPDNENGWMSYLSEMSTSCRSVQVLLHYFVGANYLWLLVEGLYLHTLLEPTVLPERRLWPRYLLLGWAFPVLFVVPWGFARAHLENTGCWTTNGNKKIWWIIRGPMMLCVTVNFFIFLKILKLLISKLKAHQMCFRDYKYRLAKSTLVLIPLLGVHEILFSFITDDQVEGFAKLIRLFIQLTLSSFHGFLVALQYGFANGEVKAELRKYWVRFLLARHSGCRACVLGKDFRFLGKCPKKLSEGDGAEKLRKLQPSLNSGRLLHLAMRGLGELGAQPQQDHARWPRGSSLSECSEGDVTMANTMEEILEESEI

[2] = target: human glucagon receptor (GCGR) (Homo sapiens, UniProt P47871); experiment: Gs activation measured as cAMP accumulation on human glucagon receptor (FIG. 1 radar plot); details: read-out: −p Log EC50 on human glucagon receptor (GCGR) (converted)
Source text: Here, the compounds 20, 21, 22, 28, 30, 31,32, 33, 34, 35 are shown in terms of their potencies in Gs activation, measured as CAMP accumulation, depicted in a radar plot. The numbers refer to −p Log EC50 values. […] The outer rings correspond to higher potencies, the inner rings correspond to lower potencies.

[3] = target: T2, human SNAP-tagged GIPR (Homo sapiens, UniProt P48546); experiment: Receptor internalization assay, HEK293A cells expressing human SNAP-tagged GIPR
T2 construct: host or cells: HEK293A
T2 sequence (P48546 22-466): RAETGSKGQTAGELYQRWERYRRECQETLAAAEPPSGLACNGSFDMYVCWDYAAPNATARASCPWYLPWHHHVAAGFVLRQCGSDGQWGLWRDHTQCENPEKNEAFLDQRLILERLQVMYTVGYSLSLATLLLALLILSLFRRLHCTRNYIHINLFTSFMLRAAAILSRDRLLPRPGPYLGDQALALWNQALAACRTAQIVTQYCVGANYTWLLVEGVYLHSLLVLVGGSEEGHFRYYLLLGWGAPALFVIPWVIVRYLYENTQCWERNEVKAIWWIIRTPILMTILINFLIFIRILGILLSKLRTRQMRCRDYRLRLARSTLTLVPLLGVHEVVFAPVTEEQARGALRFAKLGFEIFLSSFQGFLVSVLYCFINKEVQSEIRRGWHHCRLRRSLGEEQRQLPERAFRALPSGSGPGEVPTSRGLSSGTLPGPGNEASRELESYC

[4] = target: T3, human SNP-tagged GLP-2R (Homo sapiens, UniProt O95838); experiment: Receptor internalization assay, HEK293A cells expressing human SNAP-tagged GLP-2R; details: for Absolute hGLP-2R internalization (AUC): AUC of sigmoid curves up to 1 μM, 60 minutes at 37° C.; for Relative hGLP-2R internalization (%): relative to native ligand = 100
T3 construct: expressed in transfected cells; host or cells: HEK293A
T3 sequence (O95838 1-553): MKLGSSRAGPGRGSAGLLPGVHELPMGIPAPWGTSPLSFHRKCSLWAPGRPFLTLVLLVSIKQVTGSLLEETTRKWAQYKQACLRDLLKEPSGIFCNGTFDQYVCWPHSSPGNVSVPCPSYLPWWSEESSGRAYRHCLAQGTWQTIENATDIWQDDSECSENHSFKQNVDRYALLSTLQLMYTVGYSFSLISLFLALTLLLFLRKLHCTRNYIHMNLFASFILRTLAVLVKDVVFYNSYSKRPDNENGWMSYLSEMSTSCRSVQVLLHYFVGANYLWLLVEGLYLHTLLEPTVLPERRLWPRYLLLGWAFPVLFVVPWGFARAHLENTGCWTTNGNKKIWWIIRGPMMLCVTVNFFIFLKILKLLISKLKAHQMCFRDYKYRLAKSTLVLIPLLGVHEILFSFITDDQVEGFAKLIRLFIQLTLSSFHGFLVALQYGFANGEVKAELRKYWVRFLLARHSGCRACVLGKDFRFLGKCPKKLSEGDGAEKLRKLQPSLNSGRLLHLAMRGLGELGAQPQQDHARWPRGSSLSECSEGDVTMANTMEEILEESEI

[5] = target: T4, human GLP-1R (Homo sapiens, UniProt P43220); experiment: cAMP assay (HitHunter) in transiently transfected COS-7 cells expressing human GLP-1R; details: COS-7, read-out: Efficacy GLP-1R (Emax)
T4 construct: host or cells: COS-7

[6] = target: T5, human SNAP-tagged GLP-1R (Homo sapiens, UniProt P43220); experiment: Receptor internalization assay, HEK293A cells expressing human SNAP-tagged GLP-1R; details: for Absolute hGLP-1R internalization (AUC): AUC of sigmoid curves up to 1 μM, 60 minutes at 37° C.; for Relative hGLP-1R internalization (%): relative to hGLP-1 = 100
T5 construct: expressed in transfected cells; host or cells: HEK293A

[7] = target: T6, human GIPR (Homo sapiens, UniProt P48546); experiment: cAMP assay (HitHunter) in transiently transfected COS-7 cells expressing human GIPR; details: COS-7, read-out: Efficacy GIPR (Emax)
T6 construct: host or cells: COS-7
T6 sequence (P48546 22-466): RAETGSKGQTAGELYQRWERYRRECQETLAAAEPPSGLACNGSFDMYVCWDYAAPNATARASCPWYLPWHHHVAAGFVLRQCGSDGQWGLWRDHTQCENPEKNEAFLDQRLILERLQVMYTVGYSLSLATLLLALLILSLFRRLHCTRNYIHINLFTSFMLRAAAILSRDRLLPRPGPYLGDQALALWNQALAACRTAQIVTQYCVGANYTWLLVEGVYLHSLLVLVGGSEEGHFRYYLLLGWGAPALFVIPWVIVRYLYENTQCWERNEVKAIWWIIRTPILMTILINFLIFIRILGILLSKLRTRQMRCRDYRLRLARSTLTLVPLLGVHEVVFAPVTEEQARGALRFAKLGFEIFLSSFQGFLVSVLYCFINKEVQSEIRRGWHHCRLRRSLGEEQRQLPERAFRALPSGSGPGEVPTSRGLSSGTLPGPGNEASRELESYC

T5 sequence (P43220 24-463): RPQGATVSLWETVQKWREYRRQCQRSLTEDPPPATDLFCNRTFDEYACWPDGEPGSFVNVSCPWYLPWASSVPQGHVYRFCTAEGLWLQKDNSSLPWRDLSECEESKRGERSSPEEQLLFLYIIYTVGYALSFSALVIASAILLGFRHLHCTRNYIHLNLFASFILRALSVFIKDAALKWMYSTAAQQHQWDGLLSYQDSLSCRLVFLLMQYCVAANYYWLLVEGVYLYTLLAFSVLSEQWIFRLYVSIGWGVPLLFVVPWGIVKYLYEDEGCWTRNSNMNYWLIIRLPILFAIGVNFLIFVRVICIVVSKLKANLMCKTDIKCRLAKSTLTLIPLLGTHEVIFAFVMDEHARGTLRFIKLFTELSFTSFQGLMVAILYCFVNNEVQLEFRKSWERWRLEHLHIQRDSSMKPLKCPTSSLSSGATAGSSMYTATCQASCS
T4 sequence (P43220 24-463): as above
Chain of human glucagon receptor (GCGR) (P47871 26-477): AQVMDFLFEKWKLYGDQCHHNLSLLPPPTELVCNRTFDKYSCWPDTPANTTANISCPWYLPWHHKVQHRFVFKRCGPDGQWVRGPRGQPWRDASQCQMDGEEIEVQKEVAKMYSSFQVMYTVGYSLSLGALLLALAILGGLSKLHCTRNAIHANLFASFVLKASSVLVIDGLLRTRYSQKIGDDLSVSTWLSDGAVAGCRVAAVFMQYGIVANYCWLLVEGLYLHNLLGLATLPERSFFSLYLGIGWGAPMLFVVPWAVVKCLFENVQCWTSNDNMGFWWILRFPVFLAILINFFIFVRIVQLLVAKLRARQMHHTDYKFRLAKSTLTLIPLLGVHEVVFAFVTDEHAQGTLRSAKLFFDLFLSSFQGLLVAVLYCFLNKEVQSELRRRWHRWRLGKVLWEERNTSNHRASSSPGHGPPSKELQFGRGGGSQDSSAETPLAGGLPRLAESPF

SMILES | Emax [1] | EC50 [2] | Absolute hGIPR internalization (AUC) [3] | Relative hGIPR internalization (%) [3] | Absolute hGLP-2R internalization (AUC) [4] | Relative hGLP-2R internalization (%) [4] | Emax [5] | Absolute hGLP-1R internalization (AUC) [6] | Relative hGLP-1R internalization (%) [6] | Emax [7]
CC[C@H](C)[C@H](NC(=O)[C@H](Cc1ccccc1)NC(=O)[C@H](CC(=O)O)NC(=O)[C@H](CCCNC(=N)N)NC(=O)[C@H](C)NC(=O)[C@H](C)NC(=O)[C@H](CC(C)C)NC(=O)[C@H](CC(N)=O)NC(=O)[C@H](CC(=O)O)NC(=O)[C@H](CC(C)C)NC(=O)C(C)(C)NC(=O)[C@@H](NC(=O)[C@H](CO)NC(=O)[C@H](Cc1ccc(O)cc1)NC(=O)[C@H](CC(=O)O)NC(=O)[C@H](CO)NC(=O)[C@@H](NC(=O)[C@H](Cc1ccccc1)NC(=O)[C@@H](NC(=O)CNC(=O)[C@H](CC(=O)O)NC(=O)[C@H](C)NC(=O)[C@@H](N)Cc1c[nH]cn1)[C@@H](C)O)[C@@H](C)CC)[C@@H](C)O)C(=O)N[C@@H](CC(N)=O)C(=O)N[C@@H](Cc1c[nH]c2ccccc12)C(=O)N[C@@H](CC(C)C)C(=O)N[C@H](C(=O)N[C@@H](CCC(N)=O)C(=O)N[C@H](C(=O)N[C@@H](CCCCN)C(=O)NCC(=O)N[C@@H](CCCCN)C(=O)N[C@@H](CCCCN)C(=O)N[C@@H](CCCCNC(=O)COCCOCCNC(=O)COCCOCCNC(=O)CC[C@H](NC(=O)CCCCCCCCCCCCCCCCC(=O)O)C(=O)O)C(=O)O)[C@@H](C)O)[C@@H](C)CC [Compound 35] | 93% | > 100 nM | 14.3 | 39% and 38% | 7.6 | 15.7% | 92% | 2.0 | 2.4% | 99%
CC[C@H](C)[C@H](NC(=O)[C@H](Cc1ccccc1)NC(=O)[C@H](CC(=O)O)NC(=O)[C@H](CCCNC(=N)N)NC(=O)[C@H](C)NC(=O)[C@H](C)NC(=O)[C@H](CC(C)C)NC(=O)[C@H](CCCCNC(=O)COCCOCCNC(=O)COCCOCCNC(=O)CC[C@H](NC(=O)CCCCCCCCCCCCCCCCC(=O)O)C(=O)O)NC(=O)[C@H](CC(=O)O)NC(=O)[C@H](CC(C)C)NC(=O)[C@@H](NC(=O)[C@@H](NC(=O)[C@H](CO)NC(=O)[C@H](Cc1ccc(O)cc1)NC(=O)[C@H](CC(=O)O)NC(=O)[C@H](CO)NC(=O)[C@@H](NC(=O)[C@H](Cc1ccccc1)NC(=O)[C@@H](NC(=O)CNC(=O)[C@H](CC(=O)O)NC(=O)[C@H](C)NC(=O)[C@@H](N)Cc1c[nH]cn1)[C@@H](C)O)[C@@H](C)CC)[C@@H](C)O)[C@@H](C)CC)C(=O)N[C@@H](CC(N)=O)C(=O)N[C@@H](Cc1c[nH]c2ccccc12)C(=O)N[C@@H](CC(C)C)C(=O)N[C@H](C(=O)N[C@@H](CCC(N)=O)C(=O)N[C@H](C(=O)N[C@@H](CCCCN)C(=O)NCC(=O)N[C@@H](CCCCN)C(=O)N[C@@H](CCCCN)C(=O)O)[C@@H](C)O)[C@@H](C)CC [Compound 30] | 73% | > 100 nM | 21.0 | 57% | 22.7 | 46.8% | 93% | 7.3 | 8.6% | 98%
